Laboratory results reported in ChEMBL document CHEMBL1134688, “Synthesis, biological evaluation, and pharmacophore generation of new pyridazinone derivatives with affinity toward alpha(1)- and alpha(2)-adrenoceptors” (J Med Chem, 2001).

What was measured:
[1] = target: Adrenergic receptor alpha-2 (Rattus norvegicus) (UniProt P22086+P19328+P22909); assay: Ratio of binding affinity towards Alpha-2 and alpha-1 adrenergic receptor; type: protein assay
[2] = target: T1, Adrenergic receptor alpha-1 (Rattus norvegicus, UniProt P15823+P23944+P43140); assay: Binding affinity towards alpha-1 adrenergic receptor in rat cortex membrane using [3H]-prazosin radioligand; type: cell membranes
T1 sequence (P15823 whole entry): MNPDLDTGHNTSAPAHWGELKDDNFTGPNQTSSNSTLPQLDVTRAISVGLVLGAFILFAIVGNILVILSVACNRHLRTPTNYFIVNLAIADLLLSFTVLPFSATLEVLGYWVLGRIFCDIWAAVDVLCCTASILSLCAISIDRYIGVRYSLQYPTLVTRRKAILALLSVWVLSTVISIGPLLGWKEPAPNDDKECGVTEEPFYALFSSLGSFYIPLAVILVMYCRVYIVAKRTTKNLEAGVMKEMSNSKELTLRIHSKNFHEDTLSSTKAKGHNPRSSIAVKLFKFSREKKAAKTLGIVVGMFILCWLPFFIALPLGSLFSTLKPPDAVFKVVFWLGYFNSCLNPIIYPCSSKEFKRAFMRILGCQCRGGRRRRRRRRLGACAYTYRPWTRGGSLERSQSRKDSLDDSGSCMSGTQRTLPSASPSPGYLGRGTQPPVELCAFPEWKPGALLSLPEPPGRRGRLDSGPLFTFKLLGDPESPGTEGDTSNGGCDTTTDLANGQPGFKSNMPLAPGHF
T1 sequence (P23944 whole entry): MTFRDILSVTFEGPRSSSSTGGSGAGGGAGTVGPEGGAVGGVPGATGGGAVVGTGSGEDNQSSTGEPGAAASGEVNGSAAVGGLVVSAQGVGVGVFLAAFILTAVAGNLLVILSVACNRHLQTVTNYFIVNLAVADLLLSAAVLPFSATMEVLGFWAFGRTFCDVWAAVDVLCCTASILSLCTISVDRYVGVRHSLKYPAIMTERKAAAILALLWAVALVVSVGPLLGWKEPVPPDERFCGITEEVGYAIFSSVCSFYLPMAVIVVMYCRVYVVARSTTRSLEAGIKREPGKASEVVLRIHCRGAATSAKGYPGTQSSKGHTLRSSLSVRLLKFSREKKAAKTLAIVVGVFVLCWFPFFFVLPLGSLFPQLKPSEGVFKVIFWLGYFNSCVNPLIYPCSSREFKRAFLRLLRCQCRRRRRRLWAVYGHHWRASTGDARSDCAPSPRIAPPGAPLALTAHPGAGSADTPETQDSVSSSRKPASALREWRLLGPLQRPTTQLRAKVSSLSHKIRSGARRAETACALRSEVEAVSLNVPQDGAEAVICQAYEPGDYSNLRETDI
T1 sequence (P43140 whole entry): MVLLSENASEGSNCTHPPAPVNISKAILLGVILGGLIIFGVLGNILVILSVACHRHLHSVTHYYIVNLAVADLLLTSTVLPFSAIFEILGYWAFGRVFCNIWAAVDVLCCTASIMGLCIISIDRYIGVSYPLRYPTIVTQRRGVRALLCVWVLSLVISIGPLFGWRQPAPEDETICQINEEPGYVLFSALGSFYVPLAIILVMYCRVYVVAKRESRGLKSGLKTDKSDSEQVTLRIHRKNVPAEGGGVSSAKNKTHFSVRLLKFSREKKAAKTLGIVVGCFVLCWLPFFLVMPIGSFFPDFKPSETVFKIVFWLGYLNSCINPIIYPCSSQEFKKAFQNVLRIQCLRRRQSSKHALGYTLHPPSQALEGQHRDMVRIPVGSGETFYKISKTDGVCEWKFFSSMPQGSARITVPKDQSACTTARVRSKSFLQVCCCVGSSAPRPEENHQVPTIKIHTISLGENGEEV

[3] = target: T2, Adrenergic receptor alpha-2 (Rattus norvegicus, UniProt P22086+P19328+P22909); assay: Binding affinity towards alpha-2 adrenergic receptor in rat cortex membrane using [3H]rauwolscine radioligand; type: cell membranes
T2 sequence (P22086 whole entry): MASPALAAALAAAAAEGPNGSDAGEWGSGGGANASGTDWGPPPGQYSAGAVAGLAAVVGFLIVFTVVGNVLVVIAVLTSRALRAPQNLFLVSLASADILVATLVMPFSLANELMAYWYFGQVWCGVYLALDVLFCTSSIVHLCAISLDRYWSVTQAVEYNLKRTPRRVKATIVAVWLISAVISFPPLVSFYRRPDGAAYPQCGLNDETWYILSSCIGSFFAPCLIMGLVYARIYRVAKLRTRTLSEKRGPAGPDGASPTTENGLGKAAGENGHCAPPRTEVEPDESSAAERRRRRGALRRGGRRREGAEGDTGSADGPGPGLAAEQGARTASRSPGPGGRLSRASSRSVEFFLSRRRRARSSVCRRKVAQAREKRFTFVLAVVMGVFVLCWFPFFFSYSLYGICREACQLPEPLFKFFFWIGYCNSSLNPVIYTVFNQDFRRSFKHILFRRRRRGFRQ
T2 sequence (P19328 whole entry): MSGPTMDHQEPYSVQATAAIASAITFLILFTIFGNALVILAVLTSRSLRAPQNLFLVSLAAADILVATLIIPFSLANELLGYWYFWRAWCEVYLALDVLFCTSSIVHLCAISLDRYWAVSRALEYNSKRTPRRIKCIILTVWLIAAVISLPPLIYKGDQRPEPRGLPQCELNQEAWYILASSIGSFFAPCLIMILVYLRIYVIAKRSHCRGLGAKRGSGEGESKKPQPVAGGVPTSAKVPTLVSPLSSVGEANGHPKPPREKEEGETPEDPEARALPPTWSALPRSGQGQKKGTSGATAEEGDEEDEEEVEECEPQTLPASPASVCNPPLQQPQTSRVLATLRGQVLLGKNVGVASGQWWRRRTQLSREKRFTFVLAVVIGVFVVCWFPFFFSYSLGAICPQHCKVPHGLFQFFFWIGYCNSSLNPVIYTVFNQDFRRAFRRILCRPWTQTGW
T2 sequence (P22909 whole entry): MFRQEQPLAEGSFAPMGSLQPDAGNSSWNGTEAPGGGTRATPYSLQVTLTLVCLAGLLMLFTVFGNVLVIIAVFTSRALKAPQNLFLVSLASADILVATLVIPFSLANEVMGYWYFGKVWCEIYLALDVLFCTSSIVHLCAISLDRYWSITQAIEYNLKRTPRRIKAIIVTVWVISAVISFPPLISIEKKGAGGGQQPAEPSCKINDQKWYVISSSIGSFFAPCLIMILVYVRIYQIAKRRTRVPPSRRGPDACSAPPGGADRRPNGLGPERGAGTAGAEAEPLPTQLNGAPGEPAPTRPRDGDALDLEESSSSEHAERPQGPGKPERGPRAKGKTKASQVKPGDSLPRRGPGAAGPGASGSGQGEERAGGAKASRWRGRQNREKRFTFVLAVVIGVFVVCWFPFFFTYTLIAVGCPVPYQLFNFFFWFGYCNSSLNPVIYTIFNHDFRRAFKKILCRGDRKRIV

SMILES | Ratio [1] | Ki [2] [nM] | Ki [3] [nM]
COc1ccccc1OCCN1CCN(c2cnn(CCCCN3CCN(c4ccccc4Cl)CC3)c(=O)c2Cl)CC1 | 4 | 10 | 39.3
COc1ccccc1OCCN1CCN(c2cnn(CCCCCN3CCN(c4ccccc4Cl)CC3)c(=O)c2Cl)CC1 | 6.4 | 4.5 | 29
COc1ccccc1OCCN1CCN(c2cnn(CCCN3CCN(c4ccccc4Cl)CC3)c(=O)c2Cl)CC1 | 7.8 | 27.8 | 219
COc1ccccc1OCCN1CCN(c2ccc(=O)n(CCCCCCCN3CCN(c4ccccc4Cl)CC3)n2)CC1 | 9.3 | 15 | 139
COc1ccccc1OCCN1CCN(c2cnn(CCCN3CCN(c4ccccc4OC)CC3)c(=O)c2Cl)CC1 | 17 | 14.5 | 245
COc1ccccc1OCCN1CCN(c2ccc(=O)n(CCN3CCN(c4ccccc4Cl)CC3)n2)CC1 | 20.5 | 18 | 370
COc1ccccc1OCCN1CCN(c2ccc(=O)n(CCCN3CCN(c4ccccc4Cl)CC3)n2)CC1 | 46.5 | 6.8 | 316
COc1ccccc1OCCN1CCN(c2cnn(CCCCCN3CCN(c4ccccc4OC)CC3)c(=O)c2Cl)CC1 | 3.8 | 3.9 | 15
O=C(c1ccco1)N1CCN(c2cnn(CCCN3CCN(c4ccccc4Cl)CC3)c(=O)c2Cl)CC1 | 24.3 | 3.5 | 85
COc1ccccc1OCCN1CCN(c2ccc(=O)n(CCCCCCCN3CCN(c4ccccc4OC)CC3)n2)CC1 | 20 | 2.3 | 45.8
COc1ccccc1OCCN1CCN(c2cnn(CCCCCCN3CCN(c4ccccc4OC)CC3)c(=O)c2Cl)CC1 | 2.3 | 1.5 | 3.5
COc1ccccc1N1CCN(CCCCn2ncc(N3CCN(C(=O)c4ccco4)CC3)c(Cl)c2=O)CC1 | 26 | 33.5 | 870
COc1ccccc1OCCN1CCN(c2cnn(CCCCN3CCN(c4ccccc4OC)CC3)c(=O)c2Cl)CC1 | 53 | 4.3 | 230
COc1ccccc1N1CCN(CCCCn2nc(N3CCN(C(=O)c4ccco4)CC3)ccc2=O)CC1 | 4.4 | 180 | 790
COc1ccccc1OCCN1CCN(c2cnn(CCN3CCN(c4ccccc4OC)CC3)c(=O)c2Cl)CC1 | 25.5 | 16 | 409
COc1ccccc1OCCN1CCN(c2ccc(=O)n(CCN3CCN(c4ccccc4OC)CC3)n2)CC1 | 33.2 | 38 | 1261

SMILES | Ratio [1] | Ki [2] [nM] | Ki [3] [nM]
COc1ccccc1N1CCN(CCCCCCCn2nc(N3CCN(C(=O)c4ccco4)CC3)ccc2=O)CC1 | 1.7 | 54.7 | 96
COc1ccccc1OCCN1CCN(c2ccc(=O)n(CCCCCCN3CCN(c4ccccc4OC)CC3)n2)CC1 | 10.2 | 7 | 71.8
COc1ccccc1N1CCN(CCCn2nc(N3CCN(C(=O)c4ccco4)CC3)ccc2=O)CC1 | 9.8 | 64.5 | 631
O=C(c1ccco1)N1CCN(c2cnn(CCCCCCN3CCN(c4ccccc4Cl)CC3)c(=O)c2Cl)CC1 | 11.6 | 5.7 | 66
COc1ccccc1N1CCN(CCCn2ncc(N3CCN(C(=O)c4ccco4)CC3)c(Cl)c2=O)CC1 | 33.3 | 20.4 | 680
O=C(c1ccco1)N1CCN(c2cnn(CCN3CCN(c4ccccc4Cl)CC3)c(=O)c2Cl)CC1 | 38.4 | 3.9 | 150
COc1ccccc1OCCN1CCN(c2cnn(CCCCCCCCN3CCN(c4ccccc4Cl)CC3)c(=O)c2Cl)CC1 | 4 | 5.6 | 22.8
COc1ccccc1OCCN1CCN(c2ccc(=O)n(CCCN3CCN(c4ccccc4OC)CC3)n2)CC1 | 34.8 | 7.3 | 254
COc1ccccc1OCCN1CCN(c2cnn(CCCCCCCN3CCN(c4ccccc4OC)CC3)c(=O)c2Cl)CC1 | 3.2 | 1.4 | 4.6
O=C(c1ccco1)N1CCN(c2cnn(CCCCCN3CCN(c4ccccc4Cl)CC3)c(=O)c2Cl)CC1 | 5 | 3.6 | 18
COc1ccccc1OCCN1CCN(c2ccc(=O)n(CCCCCCN3CCN(c4ccccc4Cl)CC3)n2)CC1 | 16.5 | 8.4 | 138.8
O=C(c1ccco1)N1CCN(c2cnn(CCCCN3CCN(c4ccccc4Cl)CC3)c(=O)c2Cl)CC1 | 14.7 | 19 | 280
O=C(c1ccco1)N1CCN(c2ccc(=O)n(CCCCCN3CCN(c4ccccc4Cl)CC3)n2)CC1 | 7.9 | 13.3 | 105
O=C(c1ccco1)N1CCN(c2cnn(CCCCCCCN3CCN(c4ccccc4Cl)CC3)c(=O)c2Cl)CC1 | 3.1 | 11.5 | 36.2
COc1ccccc1N1CCN(CCCCCCCn2ncc(N3CCN(C(=O)c4ccco4)CC3)c(Cl)c2=O)CC1 | 274 | 1.9 | 520
COc1ccccc1N1CCN(CCCCCn2nc(N3CCN(C(=O)c4ccco4)CC3)ccc2=O)CC1 | 5.8 | 43.7 | 255
